One data set has as its system HT29. Nature of the data set: cells. Type of data set: cell-based. Conditions: HT29, MTT. As for the experimental part:
(§1) The cell lines were cultured in a cell medium (Dulbecco’s modified eagle’s or RPMI 1640) enriched with 10% (v/v) fetal bovine serum and 2% (v/v) Penicillin-Streptomycin (10,000 U/mL). First, old medium was removed out of the flask when the cells reached approximately 80% confluence. Next, cells were taken from the flasks surface using trypsin-EDTA solution and then subjected to centrifugation. Following, the cell pellet was suspended with fresh media and was inoculated into wells.
(§2) A cell suspension containing approximately 1 × 10^4 cells in 100 μL was seeded into the wells of 96-well culture plates. […]. The final volume of the wells was set to 200 μL by medium. Cell proliferation assay was evaluated by MTT (yellow tetrazolium MTT (3-(4,5-dimethylthiazolyl-2)-2,5-diphenyltetrazolium bromide) methods. Briefly, an MTT stock solution (5 mg of MTT/mL of distilled water) was filtered and kept at −20 °C until use. The cells were exposed to an MTT reagent (consisting of one parts of MTT stock solutions and nine parts of fresh RPMI 1640 without phenol red) for 4 h to form MTT formazan dye followed by the dye dissolved in DMSO with Sorenson’s buffer for 30 min at room temperature and then the plate was measured at 560 nm, with 690 nm as a reference interval, using a microplate reader. Each experiment was repeated at least three times for each cell line.
(§3) IC50 value is a concentration that inhibits half of the cells in vitro. The half maximal inhibitory concentration (IC50) of the test and control compounds was calculated using XLfit5 or excel spreadsheet and represent in μM at 95% confidence intervals. The proliferation assay results were expressed as the percent inhibition according to the following formula: % Inhibition = [1 - (Absorbance of Treatments /Absorbance of DMSO) × 100]. Three dose response parameters (GI50, TGI, LC50) were calculated according to the following formulas using the absorbance measurements of time zero (Tz), control growth (C), and test growth in the presence of drug (Ti). Growth inhibition of 50% (GI50) was calculated from [(Ti-Tz)/(C-Tz)] × 100 = 50, which is the drug concentration resulting in a 50% reduction in the net growth increase in control cells during the drug incubation. The drug concentration resulting in total growth inhibition (TGI) was calculated from Ti = Tz. The LC50 indicating a net loss of cells following treatment was calculated from [(Ti-Tz)/Tz] × 100 = −50.

For the next data set, the system named is Hep3B. Nature of the data set: cells. The format is cell-based. Conditions: MTT. As for the experimental part:
as §1, §2, §3

The subject of the next data set is MCF7. The data set can be described thus: cells. Conditions: MCF7, MTT. The format is cell-based. As for the experimental part:
as §1, §2, §3

Another data set concerns A549. The data set can be described thus: cells. Type of data set: cell-based. Conditions: A549, MTT. As for the experimental part: as §1, §2, §3
Another data set relates to HeLa. Nature of the data set: cells. Type of data set: cell-based. Conditions: MTT. As for the experimental part:
as §1, §2, §3

Another data set relates to C6 (Rat brain glioma). Nature of the data set: cells. The format is cell-based. Conditions: C6, MTT. As for the experimental part: as §1, §2, §3
For another data set, the system named is calf thymus DNA (CT-DNA). Conditions: CT-DNA binding experiments in the literature ref [32]–[33]; cited from earlier work.
Another data set concerns normal FL cells. Nature of the data set: in vitro. Type of data set: cell-based. Conditions: FL normal cells, MTT. As for the experimental part:
as §1, §2, §3

Data set [1] in a line: LDH cytotoxic activity assay, Hep3B. Type of data set: cell-based. Conditions: human, Hep3B cells, 25 μg/mL. As for the experimental part: as §1
(§4) Approximately 5 × 10^3 cells in 100 μL were placed into 96-well plates as triplicates and treated with 25, 50, 75, and 100 μg/mL concentrations of test compounds at 37 °C with 5% CO2 for 24 h. LDH activity was obtained by determining absorbance at 492–630 nm using a microplate reader.

A short description of data set [2]: LDH cytotoxic activity assay, HT29. Conditions: human, HT29 cells, HT29, 25 μg/mL. The format is cell-based. As for the experimental part:
as §1, §4

A short description of data set [3]: LDH cytotoxic activity assay, A549. Type of data set: cell-based. Conditions: human, A549 cells, A549, 25 μg/mL. As for the experimental part:
as §1, §4

Data set [4] is described as follows: LDH cytotoxic activity assay, MCF7. The format is cell-based. Conditions: human, MCF7 cells, MCF7, 25 μg/mL. As for the experimental part:
as §1, §4

Data set [5] in a line: LDH cytotoxic activity assay, FL. The format is cell-based. Conditions: human, FL cells (normal cells), FL, 25 μg/mL. As for the experimental part:
as §1, §4

Data set [6] can be described thus: LDH cytotoxic activity assay, HeLa. Type of data set: cell-based. Conditions: human, HeLa cells, 25 μg/mL. As for the experimental part: as §1, §4
A short description of data set [7]: LDH cytotoxic activity assay, C6. Type of data set: cell-based. Conditions: rat, C6 glioma cells, C6, 25 μg/mL. As for the experimental part: as §1, §4

Consider two molecules from paper PMC10387993, “New pyrimidine-N-β-D-glucosides: synthesis, biological evaluation, and molecular docking investigations” (Turkish Journal of Chemistry, 2023).

Values after ≈ are worked out from the molar mass of the structure shown. Like-named read-outs stand apart in the source and are kept apart here.

For `N.N.[Cl][Pt][Cl]` [Cisplatin, cisplatin, reference compound], the IC50 (usually the concentration that inhibits the measured activity by half) was 40.39 µg/mL with HT29; 48.69 µg/mL with Hep3B; 63.79 µg/mL in the data set with MCF7; 60.49 µg/mL with A549; 50.29 µg/mL in the data set with HeLa; 33.08 µg/mL in the data set with C6 (Rat brain glioma). The IC50 with normal FL cells worked out at 52.79 µg/mL. The “binding constant (Kb)” value in the data set with calf thymus DNA (CT-DNA) was 57300 M⁻¹.
On to `O=c1[nH]cc(F)c(=O)[nH]1` [Compound 5FU, 5-fluorouracil, reference compound], for which the IC50 in the data set on HT29 (Homo sapiens, HT-29, read-out: IC50) was 65.2 µg/mL (≈ 501 µM); in the data set on Hep3B (Homo sapiens, read-out: IC50), 62.9 µg/mL (≈ 483 µM); in the data set on MCF7 (Homo sapiens, read-out: IC50), 74.2 µg/mL (≈ 570 µM); in the data set with A549 (Homo sapiens, read-out: IC50), 69.8 µg/mL (≈ 537 µM); in the data set with HeLa (Homo sapiens, read-out: IC50) it was 61.6 µg/mL (≈ 473 µM); with C6 (Rat brain glioma) (Rattus norvegicus, read-out: IC50), 54.3 µg/mL (≈ 417 µM). Besides, in the data set on normal FL cells (read-out: IC50), the IC50 was 59.1 µg/mL (≈ 454 µM). The cytotoxicity at 24 h, 25 μg/mL in [1] turned out to be 9.67%; in data set [2], 7.91%; in [3], 9.19%; in [4] it was 7.69%; in [5], 8.44%; in data set [6], 8.83%. Moreover, the cytotoxicity at 24 h, 25 μg/mL in data set [7] is 10%. In addition, the “binding constant (Kb)” value in the data set on calf thymus DNA (CT-DNA) is 97000 M⁻¹.
